Measured values published in patent US6423689B1, “Peptidyl calcium channel blockers” (Warner-Lambert Company, priority 1997, dated 2002).
Read-outs that look alike come from different tables or passages of the source.

How the values were obtained:
[1] = target: T1, N-type Ca2+ channels in IMR-32 cells (Homo sapiens, UniProt Q00975); experiment: Inhibition of N-type calcium flux in IMR-32 cells (Indo-1 fluorescence, nitrendipine present); format: cell-based; conditions: for inhibition at 1 µM / inhibition at 10 µM: IMR-32; for IC50: IMR-32 cells, 5 μM nitrendipine, K+ depolarization
T1 construct: host or cells: IMR-32 cells, differentiated with dibutyryl cAMP and bromodeoxyuridine
T1 sequence (Q00975 whole entry): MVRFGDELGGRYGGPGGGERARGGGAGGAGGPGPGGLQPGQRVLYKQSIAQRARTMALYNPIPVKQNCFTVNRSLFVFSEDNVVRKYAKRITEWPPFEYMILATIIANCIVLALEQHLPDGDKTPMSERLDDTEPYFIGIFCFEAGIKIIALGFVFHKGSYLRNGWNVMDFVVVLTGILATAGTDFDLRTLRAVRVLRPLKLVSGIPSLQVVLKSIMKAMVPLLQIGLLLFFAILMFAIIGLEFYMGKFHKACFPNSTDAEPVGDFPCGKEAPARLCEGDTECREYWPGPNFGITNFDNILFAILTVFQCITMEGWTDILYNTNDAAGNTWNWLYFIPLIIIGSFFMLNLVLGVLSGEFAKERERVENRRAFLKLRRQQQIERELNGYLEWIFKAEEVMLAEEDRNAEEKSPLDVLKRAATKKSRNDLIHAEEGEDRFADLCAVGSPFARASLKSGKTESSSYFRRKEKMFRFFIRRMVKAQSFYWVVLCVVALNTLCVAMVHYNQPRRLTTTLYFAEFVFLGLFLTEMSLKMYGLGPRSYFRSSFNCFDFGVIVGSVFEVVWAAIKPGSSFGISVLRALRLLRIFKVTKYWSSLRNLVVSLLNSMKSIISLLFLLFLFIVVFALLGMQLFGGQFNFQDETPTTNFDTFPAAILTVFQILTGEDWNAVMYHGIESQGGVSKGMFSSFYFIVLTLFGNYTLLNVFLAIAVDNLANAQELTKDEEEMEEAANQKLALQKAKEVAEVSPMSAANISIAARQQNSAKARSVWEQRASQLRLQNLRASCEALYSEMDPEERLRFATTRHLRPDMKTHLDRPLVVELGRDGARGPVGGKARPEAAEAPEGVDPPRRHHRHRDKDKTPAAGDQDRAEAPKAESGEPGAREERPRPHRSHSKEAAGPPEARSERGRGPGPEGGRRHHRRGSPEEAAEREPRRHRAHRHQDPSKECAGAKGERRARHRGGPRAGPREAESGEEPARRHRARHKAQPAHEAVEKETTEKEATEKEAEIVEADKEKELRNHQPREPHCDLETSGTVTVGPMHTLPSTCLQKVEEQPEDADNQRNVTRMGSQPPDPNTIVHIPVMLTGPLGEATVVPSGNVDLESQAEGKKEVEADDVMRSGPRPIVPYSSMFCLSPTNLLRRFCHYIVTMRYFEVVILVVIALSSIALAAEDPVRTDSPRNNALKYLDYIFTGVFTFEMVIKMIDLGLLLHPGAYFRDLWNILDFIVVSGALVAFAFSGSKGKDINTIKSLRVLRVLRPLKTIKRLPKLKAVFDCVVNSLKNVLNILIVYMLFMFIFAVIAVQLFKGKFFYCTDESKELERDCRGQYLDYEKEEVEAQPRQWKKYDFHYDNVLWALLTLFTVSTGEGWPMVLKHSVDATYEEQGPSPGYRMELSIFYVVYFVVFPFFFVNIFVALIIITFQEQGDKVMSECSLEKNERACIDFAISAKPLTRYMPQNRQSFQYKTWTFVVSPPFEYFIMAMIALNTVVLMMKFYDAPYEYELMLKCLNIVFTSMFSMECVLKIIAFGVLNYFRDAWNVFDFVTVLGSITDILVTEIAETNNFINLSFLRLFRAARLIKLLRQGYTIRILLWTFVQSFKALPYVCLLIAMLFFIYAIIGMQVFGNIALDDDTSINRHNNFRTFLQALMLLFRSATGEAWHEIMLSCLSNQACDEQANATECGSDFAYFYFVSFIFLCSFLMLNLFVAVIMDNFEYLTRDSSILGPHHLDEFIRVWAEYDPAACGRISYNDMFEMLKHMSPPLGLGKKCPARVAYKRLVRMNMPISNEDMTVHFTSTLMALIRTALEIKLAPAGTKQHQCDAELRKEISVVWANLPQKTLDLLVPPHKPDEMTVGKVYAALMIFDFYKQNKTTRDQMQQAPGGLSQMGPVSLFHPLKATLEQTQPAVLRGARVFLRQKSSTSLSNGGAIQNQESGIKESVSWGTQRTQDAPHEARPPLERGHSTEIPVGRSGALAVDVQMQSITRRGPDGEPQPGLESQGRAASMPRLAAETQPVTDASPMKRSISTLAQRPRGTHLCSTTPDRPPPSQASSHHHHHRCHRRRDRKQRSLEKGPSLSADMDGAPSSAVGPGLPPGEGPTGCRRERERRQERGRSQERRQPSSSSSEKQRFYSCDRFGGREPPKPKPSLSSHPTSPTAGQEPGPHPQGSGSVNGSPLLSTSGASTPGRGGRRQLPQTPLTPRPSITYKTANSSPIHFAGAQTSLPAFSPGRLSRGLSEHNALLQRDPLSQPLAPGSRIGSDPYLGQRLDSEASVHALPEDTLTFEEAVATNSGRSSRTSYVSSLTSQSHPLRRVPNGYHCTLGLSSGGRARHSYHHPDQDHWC
T1 sequence (P54289 25-956 partner limits assumed): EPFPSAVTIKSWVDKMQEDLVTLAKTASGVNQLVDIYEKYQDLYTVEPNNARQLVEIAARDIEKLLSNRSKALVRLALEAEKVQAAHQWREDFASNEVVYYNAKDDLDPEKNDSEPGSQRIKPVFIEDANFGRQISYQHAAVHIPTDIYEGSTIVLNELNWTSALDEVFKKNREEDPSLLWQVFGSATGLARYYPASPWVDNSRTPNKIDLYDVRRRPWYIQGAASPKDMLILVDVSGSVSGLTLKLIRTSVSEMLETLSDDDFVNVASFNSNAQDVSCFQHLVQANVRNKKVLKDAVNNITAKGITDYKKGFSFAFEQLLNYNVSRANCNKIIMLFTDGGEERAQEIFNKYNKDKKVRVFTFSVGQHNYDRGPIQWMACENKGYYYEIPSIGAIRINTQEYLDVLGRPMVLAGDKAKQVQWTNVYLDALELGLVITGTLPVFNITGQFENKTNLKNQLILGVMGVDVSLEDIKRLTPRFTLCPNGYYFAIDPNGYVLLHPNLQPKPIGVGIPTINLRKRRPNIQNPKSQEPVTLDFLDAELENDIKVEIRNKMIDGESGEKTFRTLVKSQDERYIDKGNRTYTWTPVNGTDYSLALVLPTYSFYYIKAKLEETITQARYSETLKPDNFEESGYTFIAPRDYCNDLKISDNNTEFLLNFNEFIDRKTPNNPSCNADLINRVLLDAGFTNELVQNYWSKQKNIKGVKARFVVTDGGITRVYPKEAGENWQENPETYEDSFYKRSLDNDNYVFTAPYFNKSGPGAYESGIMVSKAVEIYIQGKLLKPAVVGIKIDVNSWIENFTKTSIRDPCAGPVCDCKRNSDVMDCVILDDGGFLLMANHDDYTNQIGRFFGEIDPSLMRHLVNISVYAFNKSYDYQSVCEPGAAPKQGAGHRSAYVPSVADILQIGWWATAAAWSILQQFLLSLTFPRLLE
T1 sequence (P54289 957-1103 partner limits assumed): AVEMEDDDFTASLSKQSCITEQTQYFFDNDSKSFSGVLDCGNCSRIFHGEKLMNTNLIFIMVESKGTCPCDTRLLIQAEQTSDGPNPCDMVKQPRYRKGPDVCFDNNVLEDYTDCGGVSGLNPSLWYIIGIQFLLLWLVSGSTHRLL
T1 sequence (P54284 whole entry partner): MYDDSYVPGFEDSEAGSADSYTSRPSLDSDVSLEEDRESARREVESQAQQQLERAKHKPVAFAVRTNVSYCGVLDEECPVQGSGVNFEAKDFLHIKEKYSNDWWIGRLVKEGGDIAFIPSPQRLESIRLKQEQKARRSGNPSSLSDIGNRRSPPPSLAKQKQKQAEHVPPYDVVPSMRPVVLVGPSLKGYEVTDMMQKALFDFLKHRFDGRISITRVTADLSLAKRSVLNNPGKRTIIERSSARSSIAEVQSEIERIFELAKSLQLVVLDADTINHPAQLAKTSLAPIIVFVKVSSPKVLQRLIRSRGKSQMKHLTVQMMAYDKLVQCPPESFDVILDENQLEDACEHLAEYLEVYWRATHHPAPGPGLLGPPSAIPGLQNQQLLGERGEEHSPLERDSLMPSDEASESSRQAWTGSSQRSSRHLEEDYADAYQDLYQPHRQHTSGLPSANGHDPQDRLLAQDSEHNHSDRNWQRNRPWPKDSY
Outline: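 Differentiated IMR-32 cells (7–13 days) were loaded with 5 μM Indo-1 AM, preincubated with compound for 10 min at 30° C, and depolarized with KCl/CaCl2 stimulation solution, with 5 μM nitrendipine blocking L-channels. Peak-minus-basal 400/490 nm emission ratio was plotted against drug concentration, and IC50 came from four-parameter logistic fits.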

[2] = system: L-type Ca2+ channels in GH3 cells; experiment: Inhibition of L-type calcium flux in GH3 cells (Indo-1 fluorescence); format: cell-based, rat
Description: Measurement of L-type Ca^2+ Channel Blocking Potencies of Compounds in GH3 Cells Using the Fluorescent Ca^2+ Indicator Indo-1
The GH3 rat pituitary cell line was obtained from the American Type Culture Collection (Rockville, Md.). Cells were grown in Ham's F-10 medium with 15% horse serum, 2.5% fetal bovine serum (FBS), and […] (Gibco, Gaithersburg, Md.). Confluent cells were detached using 0.5 mM EDTA and loaded with 5 μM Indo-acetoxymethyl ester (Molecular Probes, Eugene, Oreg.) in 1% bovine serum albumin (BSA) containing assay buffer (10 mM HEPES/Tris pH 7.4 in Hank's Balanced Salt Solution without bicarbonate or phenol red) for 60 minutes at 30° C. Loaded cells were washed twice, resuspended (approx. 10^7 cells/mL) in assay buffer containing 0.5% BSA, and kept on ice until use (<3 hrs). Different concentrations of the test compounds (60 μL in dimethyl sulfoxide) or controls were added to 5.94 mL of assay buffer containing approximately 3×10^6 loaded cells, and the samples were incubated for 10 minutes at 30° C. After incubation, samples were aliquoted into 3 cuvettes, and their fluorescence was measured with a Photon Technology International (PTI, South Brunswick, N.J.) Model RF-F3004 spectrofluorometer thermostatted at 30° C. Excitation was set at 350 nm and dual emissions were recorded at 400 and 490 nm. Basal emission signals were acquired for 20 seconds, followed by the depolarization of cells by the addition of 200 μL of a stimulation solution (1 M KCl, 68 mM CaCl2) to the stirred cuvette. Emission signals were acquired for an additional 50 seconds after depolarization. Ratio of emission signals (F400 nm/F490 nm), which is proportional to intracellular Ca^2+ concentration, was plotted against time, and the difference between the emission ratio 50 seconds after stimulation and its basal value (before stimulation) was determined. Values obtained in this way were considered as measures of depolarization-induced Ca-flux through L-type channels and plotted as a function of drug concentration. IC50 values of test compounds were calculated by fitting a four-parameter logistic function to the data using the least squares method.

[3] = target: T2, N-type Ca2+ channels in superior cervical ganglion (SCG) neurons (Rattus norvegicus, UniProt Q02294); experiment: Whole-cell voltage clamp, N-type Ca2+ current in SCG neurons; format: cell-based
T2 construct: from tissue
Outline: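 Whole-cell voltage clamp of acutely trypsin-dissociated rat SCG neurons, with TEA/choline external solution (2 mM Ca2+) and Cs-methanesulfonate pipette solution. Currents evoked by 150 ms steps to +20 mV from −65 to −55 mV holding, every 40 s; compounds applied locally, effect as % inhibition of control amplitude.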

[4] = system: K+ channels in superior cervical ganglion (SCG) neurons; experiment: Whole-cell voltage clamp, K+ current in SCG neurons; format: cell-based, rat; conditions: 10 μM
Outline: (§1)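 Acutely dissociated (trypsin) SCG neurons under whole-cell voltage clamp, external NaCl/KCl/HEPES buffer pH 7.4, K-gluconate/KCl pipette. From holding potential −65 to −55 mV, 35 msec steps every 10 sec to 0 mV (peak Na+ current) or +50 mV (sustained K+ current); compounds perfused locally to steady-state block, reported as percent inhibition of control.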

[5] = system: Na+ channels in superior cervical ganglion (SCG) neurons; experiment: Whole-cell voltage clamp, Na+ current in SCG neurons; format: cell-based, rat; conditions: 10 μM
Outline: as §1

[6] = target: T3, L-type Ca2+ channels in A10 cells (Rattus norvegicus, UniProt P22002); experiment: Inhibition of L-type calcium flux in A10 cells (FLIPR); format: cell-based
T3 construct: which endogenously expresses L-type calcium channels; host or cells: A10 rat aortic smooth muscle cells
Description: Measurement of L-type Ca^2+ Channel Blocking Potencies of Compounds in A10 cells
Calcium flux through voltage-sensitive calcium channels was assessed by time-resolved monitoring of the fluorescence of pre-loaded calcium-sensitive dyes using FLIPR, a fluorescent image plate reader (Molecular Devices Co.). The A10 smooth muscle cell line derived from embryonic thoracic aorta of the DBIX rat (ATCC, CRL-1476) which endogenously expresses L-type calcium channels. The growth media for A10 cells was Ham's F12/DME high glucose (Irvine Scientific, 9052), supplemented with 20% fetal bovine serum (HyClone Labs, A-1115-L), and 1% each of L-glutamine and antibiotic-antimycotic (same source as above).
Cells were grown to confluency and replated on black-sided 96-well plates (Costar, 3603) for use in FLIPR. Two days after replating, growth media was removed and cells were loaded at 37° C. with 100 μL media containing 1 μM Oregon Green 488 Bapta-1 dye (Molecular Probes, O-6807) for 1 to 3 hours. The dye-containing media was then washed away with buffer (composition in mM: 1.25 CaCl2, 1.2 MgSO4, 11 glucose, 10 HEPES, 3.0 KCl, 137.0 NaCl, pH 7.4 with Tris base) in a Denley Cellwash (Labsystems, CW018B). The residual buffer volume was adjusted to 50 μL. A 5 minute drug-pre-incubation period at 35° C. was initiated when 50 μL of drug-containing buffer was pipetted into the cell plate with the 96-well pipettor integrated in the FLIPR apparatus. Fluorescent counts were monitored at 20 second intervals for 360 seconds, beginning 60 seconds prior to the delivery of drug-containing buffer. Following drug addition, 100 μL aliquots of a high K^+, depolarizing stimulus (composition in mM: 1.25 CaCl2, 1.2 MgSO4, 11 glucose, 10 HEPES, 140.0 KCl, pH 7.4 with Tris base) were added to each well and fluorescence was monitored at 1 second intervals for 120 seconds, beginning 10 seconds prior to the stimulus addition. CCD camera exposure time was 0.4 seconds, laser excitation was at 488 nm with a power of 0.2-0.5W, and a 510 to 560 nm bandpass interference filter preceded the camera.
Data was analyzed as a summation of fluorescent counts above basal during the stimulation period (an approximation of area under the curve), after normalizing the data with a spatial uniformity correction (for variations in laser illumination and cell density) and a negative control correction (zero calcium increase defined as the fluorescence reading in the presence of saturating pharmacologic block of the respective calcium channel). Drug effects were expressed as percent inhibition of fluorescence from an average of 8 K^+-stimulated wells which were pre-treated in the drug incubation period with buffer only.
In the A10 cells, the pharmacologic agent used to define zero calcium influx was nitrendipine (RBI, N-144), at a final concentration of 1.0×10^−6 M.

DBA/2 mice = experiment: animal or person; format: in vivo; conditions: Mus musculus, iv, read-out: Number of Mice Protected from Tonic Convulsions
Description: Audiogenic Seizure Model in DBA/2 Mice
In Vivo Biological Protocol
A compound of the present invention was dissolved in water using 10% (weight/volume) Emulphor (GAF Cop., Wayne N.J. surfactant. Substances were administered by intravenous injection the retro-orbital venous sinus. […] All the male mice, 3-4 weeks old were obtained from Jackson Laboratories Bar Harbour, Me. Immediately before anticonvulsant testing, mice were placed upon a wire mesh, 4 inches square suspended from a steel rod. The square was slowly inverted through 180 degree and mice observed for 30 seconds. Any mouse falling from the wire mesh was scored as ataxia.
Mice were placed into an enclosed acrylic plastic chamber (21 cm in height, approximately 30 cm diameter) with a high-frequency speaker (4 cm diameter) in the center of the top lid. An audio signal generator (Protek model B-810) was used to produce a continuous sinusoidal tone that was swept linearly in frequency between 8 kHz and 16 kHz once each 10 msec. The average sound pressure level (SPL) during stimulation was approximately 100 dB at the floor of the chamber. Mice were placed within the chamber and allowed to acclimatize for 1 minute. DBA/2 mice in the vehicle-treated group responded to the sound stimulus (applied until tonic extension occurred, or for a maximum of 60 sec) with a characteristic seizure sequence consisting of wild running followed by clonic seizures, and later by tonic extension, and finally by respiratory arrest and death in 80% or more of the mice. In vehicle-treated mice, the entire sequence of seizures to respiratory arrest lasts approximately 15-20 seconds.
The incidence of all the seizure phases in the drug-treated and vehicle-treated mice was recorded, and the occurrence of tonic seizures were used for calculating anticonvulsant ED50 values by probit analysis. Mice were used only once for testing at each time and dose point.

Compound	inhibition at 1 µM [1] [%]	inhibition at 10 µM [1] [%]	IC50 [1] [µM]	IC50 [2] [µM]	melting point [°C]	inhibition at 10 µM ([3]; 10 μM) [%]	IC50 ([3]; read-out: Inhibition of N-type Ca2+ Current IC50) [µM]	Inhibition of K+ Current, % Inhibition at 10 μM [4] [%]	Inhibition of Na+ Current, % Inhibition at 10 μM [5] [%]	IC50 [6] [µM]	responders at 30 mg/kg (DBA/2 mice; 0.25 h) [%]	responders at 30 mg/kg (DBA/2 mice; 0.75 h) [%]
CC(C)(C)OC(=O)[C@@H](Cc1ccc(OCc2ccccc2)cc1)NC(=O)[C@H](Cc1c[nH]c2ccccc12)NC(=O)N1CCCCCC1 [Example 17, 2(R)-[2(S)-[(Azepane-1-carbonyl)-amino]-3-(1H-indol-3-yl)-propionylamino]-3-(4-benzyloxy-phenyl)-propionic acid tert-butyl ester]	41	85	1.85	5.8								
CC(C)(C)OC(=O)[C@H](Cc1ccc(OCc2ccccc2)cc1)NC(=O)[C@H](Cc1c[nH]c2ccccc12)NC(=O)N1CCCCCC1 [Example 20, [S-(R*,R*)]-2-[2-[(Azepane-1-carbonyl)-amino]-3-(1H-indol-3-yl)-propionylamino]-3-(4-benzyloxy-phenyl)-propionic acid tert-butyl ester]	52	90	0.91	4.6								
CC(C)C[C@H](NC(=O)N1CCCCCC1)C(=O)N[C@@H](Cc1ccc(OCc2ccccc2)cc1)C(=O)N1CCSCC1 [Example 221, [S-(R*,R*)]-Azepane-1-carboxylic acid {1-[1-(4-benzyloxy-benzyl)-2-thiomorpholin-4-yl-2-oxo-ethylcarbamoyl]-3-methyl-butyl}-amide]	65	93								0.6	20	0
CC(C)C[C@H](NC(=O)N1CCCCCC1)C(=O)N[C@@H](Cc1ccc(OCc2ccccc2)cc1)C(=O)NCCc1ccccn1 [Example 231]	55	95	1.11							0.67	0	

More lines, in order of falling IC50 [1], values ahead:

inhibition at 1 µM [1] [%]	inhibition at 10 µM [1] [%]	IC50 [1] [µM]	IC50 [2] [µM]	melting point [°C]	inhibition at 10 µM ([3]; 10 μM) [%]	IC50 ([3]; read-out: Inhibition of N-type Ca2+ Current IC50) [µM]	Compound	Inhibition of K+ Current, % Inhibition at 10 μM [4] [%]	Inhibition of Na+ Current, % Inhibition at 10 μM [5] [%]	IC50 [6] [µM]	responders at 30 mg/kg (DBA/2 mice; 0.25 h) [%]	responders at 30 mg/kg (DBA/2 mice; 0.75 h) [%]
50	97	0.93	3.5				CC(C)(C)OC(=O)[C@@H](Cc1ccc(OCc2ccccc2)cc1)NC(=O)[C@H](Cc1ccccc1)NC(=O)N1CCCCCC1 [Example 18, 2(R)-{2(S)-[(Azepane-1-carbonyl)-amino]-3-phenyl-propionylamino}-3-(4-benzyloxy-phenyl)-propionic acid tert-butyl ester]					
55	95	0.58	18		78	3.24	CC(C)C[C@H](NC(=O)N1CCCCCC1)C(=O)N[C@@H](Cc1ccc(OCc2ccccc2)cc1)C(=O)NC(C)(C)C [Example 23, [S-(R*,R*)]-Azepane-1-carboxylic acid {1-[2-(4-benzyloxy-phenyl)-1-tert-butylcarbamoyl-ethylcarbamoyl]-3-methyl-butyl}-amide]	61	30			
68	91	0.5	4.3	87 to 90			Cc1ccc(COc2ccc(C[C@H](NC(=O)[C@H](Cc3ccccc3)NC(=O)N3CCCCCC3)C(=O)OC(C)(C)C)cc2)cc1 [Example 19, [S-(R*,R*)]-2-{2-[(Azepane-1-carbonyl)-amino]-3-phenyl-propionylamino}-3-[4-(4-methyl-benzyloxy)-phenyl]-propionic acid tert-butyl ester]					
